Measured values: US9567371B2, “Short beta-defensin-derived peptides” (Yeda Research and Development Co. Ltd., priority 2009, dated 2017)
Peptide text beside a SMILES is read from it.

Key:
pre-B-ALL G2 cells = experiment: Cell toxicity assay (propidium iodide exclusion, flow cytometry); assay type: cell-based, human; details: 6 and 24 h, FIG. 1
Description: FIG. 1. […] G2 cells (1×10^6/ml) were cultured in 96-well flat-bottom wells in serum free IMDEM culture medium supplemented with L-glutamine and antibiotics, for 6 and 24 h at 37° C. with the indicated peptides. Untreated cells served as a control. After treatment, cells were stained with propidium iodide (PI) and its exclusion was analyzed by flow cytometry. Data shown are the percentage of Pr (dead) cells. Vertical bars represent standard deviation of duplicate experiments. *P<0.05 compared to untreated control.
Pre-B-ALL G2 cells and freshly isolated primary human CD3^+ T cells (1×10^6/ml) were cultured in 96-well flat-bottom wells in serum free IMDM or RPMI 1640 medium, respectively, both supplemented with L-glutamine and antibiotics, for 6 and 24 hrs at 37° C. (95% humidity, 5% CO2) with 10 μM, 100 μM or 1 mM of the peptides. Untreated cells served as a control. Cell viability was determined by propidium iodide (PI) exclusion by flow cytometry as described (Goichberg, P., et al., 2006).
In order to test cytotoxicity of the peptides, human pre-B-ALL G2 cells and freshly isolated primary human CD3^+ T cells (1×10^6/ml) were cultured in with 10 μM, 100 μM or 1 mM of TL-1, AK-1 and cyclic TL-1, as described in the Material and Methods. All tested peptides were not toxic for G2 cells (FIG. 1) as well as for primary human T cells at 10 μM and 100 μM. Even in the highest concentration, 1 mM, the peptides killed only 8-12% and 14-16% cells treated for 6 and 24 hrs, respectively, indicating a very low cytotoxicity of the peptides.

U937 cells = experiment: Transwell migration towards SDF-1; assay type: cell-based, human
Description: Various cells (1×10^6/mL), untreated or pretreated with peptides for 3 hrs at 96-well flat bottom plates at 37° C. were washed, 2×10^5 cells/100 μL were added to the upper chambers of Costar 24-well transwell plates with 5 μm pore filters (Corning Inc., Corning, N.Y.) and allowed to migrate for 2-4 hrs at 37° C. (95% humidity, 5% CO2) spontaneously or towards 50 ng/mL SDF-1 (rhSDF-1, Peprotech, Rocky Hill, N.J.) in medium supplemented with 10% FCS. In the chemotaxis assay, untreated cells were added to the upper chambers and the peptides were added to the lower chambers in serum free medium. Migrated cells were collected from the lower chambers and counted using a flow cytometer. Data are presented as a percentage of migrated cells.
To address this issue, the cells were incubated with the peptides for 3 hrs, washed and then allowed to migrate towards SDF-1.

Structure (SMILES): N=C(N)NCCC[C@@H]1NC(=O)CNC(=O)[C@H](CCCNC(=N)N)NC(=O)[C@H](CCCCN)NC(=O)[C@H](CCCCN)NC(=O)[C@H](CCCNC(=N)N)NC(=O)[C@H](CCCNC(=N)N)NC(=O)[C@H](CS)NC(=O)[C@H](CS)NC(=O)[C@H](CCCCN)NC1=O [cyclic TL-1, 1,10-cyclo[RGRKCCRRKK]] (cyclo(CCRRKKRGRK))
- cellular toxicity (percentage of PI+ dead cells) (pre-B-ALL G2 cells): Low cellular toxicity
- SDF-1-induced migration (U937 cells; 1 μM): ineffective
- inhibition of SDF-1-induced migration (U937 cells; 10 μM): 2 fold
